Reference: ChEMBL document CHEMBL1146136, “Optimization of 2,4-diaminopyrimidines as GHS-R antagonists: side chain exploration” (Bioorg Med Chem Lett, 2006)

Columns and labels:
[1] = target: T1, Dihydrofolate reductase (Homo sapiens) (UniProt P00374); assay: Inhibition of human DHFR receptor at 10 uM
T1 sequence (whole entry): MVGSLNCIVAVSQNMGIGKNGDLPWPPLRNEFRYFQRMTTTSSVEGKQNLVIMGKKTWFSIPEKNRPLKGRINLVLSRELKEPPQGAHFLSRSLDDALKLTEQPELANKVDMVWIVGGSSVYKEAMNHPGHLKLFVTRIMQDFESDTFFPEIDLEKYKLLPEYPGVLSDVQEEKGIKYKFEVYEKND

[2] = target: T1, Dihydrofolate reductase (Homo sapiens); assay: Inhibition of human DHFR receptor at 1 uM
[3] = target: T2, Growth hormone secretagogue receptor type 1 (Homo sapiens, UniProt Q92847); assay: Inhibition of human GHS receptor by FLIPR; type: functional
[4] = target: T2, Growth hormone secretagogue receptor type 1; assay: Inhibition of human GHS receptor by binding assay
[5] = target: T1, Dihydrofolate reductase (Homo sapiens); assay: Inhibition of human DHFR receptor at 30 uM

T2 sequence (Q92847 whole entry): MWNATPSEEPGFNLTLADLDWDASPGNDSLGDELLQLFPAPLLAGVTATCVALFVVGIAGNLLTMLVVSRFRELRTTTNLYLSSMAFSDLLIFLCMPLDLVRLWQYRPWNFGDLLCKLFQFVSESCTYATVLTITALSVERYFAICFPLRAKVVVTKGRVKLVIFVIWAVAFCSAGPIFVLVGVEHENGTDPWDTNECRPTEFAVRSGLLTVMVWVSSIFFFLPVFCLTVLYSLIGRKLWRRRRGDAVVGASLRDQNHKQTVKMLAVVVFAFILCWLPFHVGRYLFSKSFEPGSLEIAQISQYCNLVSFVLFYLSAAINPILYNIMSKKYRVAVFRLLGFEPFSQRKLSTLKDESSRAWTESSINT

With `CS(=O)(=O)c1ccc(CNc2ccc(-c3c(N)nc(N)nc3C3CCCC3)cc2)cc1` the inhibition [1] was 97%, the inhibition [2] was 73% and the IC50 [3] was 0.021 µM.

`CNCc1nc(N)nc(N)c1-c1ccc(NCc2ccc(S(C)(=O)=O)cc2)cc1` gave an IC50 [4] of 0.279 µM and an IC50 [3] of 1.38 µM.

`CS(=O)(=O)c1ccc(CNc2ccc(-c3c(N)nc(N)nc3CN3CCc4ccccc4C3)cc2)cc1` gave an inhibition [1] of 58%, an inhibition [2] of 29% and an IC50 [3] of 0.041 µM.

Work on `CS(=O)(=O)c1ccc(CNc2ccc(-c3c(N)nc(N)nc3C3CCCCC3)cc2)cc1` yielded an inhibition [1] of 50%, an inhibition [2] of 16% and an IC50 [3] of 0.036 µM.

In the case of `COCc1nc(N)nc(N)c1-c1ccc(NCc2ccc(S(C)(=O)=O)cc2)cc1`, the IC50 [4] is reported as 0.0075 µM and the IC50 [3] is reported as 0.053 µM.

`CC(C)c1nc(N)nc(N)c1-c1ccc(NCc2ccc(S(C)(=O)=O)cc2)cc1` showed an IC50 [4] of 0.0054 µM and an IC50 [3] of 0.014 µM.

`CS(=O)(=O)c1ccc(CNc2ccc(-c3c(N)nc(N)nc3CN)cc2)cc1` was tested, and the IC50 [4] was 0.634 µM and the IC50 [3] was 7.16 µM.

`CN(C)Cc1nc(N)nc(N)c1-c1ccc(NCc2ccc(S(C)(=O)=O)cc2)cc1` was tested, and the IC50 [4] was 0.186 µM and the IC50 [3] was 2.58 µM.

`CS(=O)(=O)c1ccc(CNc2ccc(-c3c(N)nc(N)nc3CNC3CCCC3)cc2)cc1` gave an IC50 [4] of 0.122 µM and an IC50 [3] of 3.43 µM.

With `CCc1nc(N)nc(NC)c1-c1ccc(NCc2ccc(S(C)(=O)=O)cc2)cc1` the inhibition [1] was 82%, the inhibition [2] was 41% and the IC50 [4] was 0.037 µM. It also gave an IC50 [3] of 0.069 µM.

`Cc1ccc(COCc2nc(N)nc(N)c2-c2ccc(NCc3ccc(S(C)(=O)=O)cc3)cc2)o1` gave an IC50 [4] of 0.0034 µM and an IC50 [3] of 0.0097 µM.

In the case of `CS(=O)(=O)c1ccc(CNc2ccc(-c3c(N)nc(N)nc3CNCC3CCCC3)cc2)cc1`, the IC50 [4] is reported as 0.016 µM and the IC50 [3] is reported as 0.316 µM.

With `CS(=O)(=O)c1ccc(CNc2ccc(-c3c(N)nc(N)nc3CNc3ccc(F)cc3)cc2)cc1` the IC50 [4] was 0.0015 µM and the IC50 [3] was 0.012 µM.

`CCc1nc(N)nc(Nc2ccccc2)c1-c1ccc(NCc2ccc(S(C)(=O)=O)cc2)cc1` was tested, and the IC50 [4] was 0.7 µM and the IC50 [3] was > 10 µM.

Work on `CCc1nc(N)nc(N(CC)CC)c1-c1ccc(NCc2ccc(S(C)(=O)=O)cc2)cc1` yielded an IC50 [4] of 0.45 µM and an IC50 [3] of 0.38 µM.

`CS(=O)(=O)c1ccc(CNc2ccc(-c3c(N)nc(N)nc3C3Cc4ccccc4O3)cc2)cc1` (stereo not given) showed an IC50 [3] of 0.038 µM.

Work on `CS(=O)(=O)c1ccc(CNc2ccc(-c3c(N)nc(N)nc3CCC(=O)NCc3cccc(Cl)c3)cc2)cc1` yielded an IC50 [4] of 0.002 µM and an IC50 [3] of 0.0054 µM.

`CS(=O)(=O)c1ccc(CNc2ccc(-c3c(N)nc(N)nc3[C@@H]3CCCO3)cc2)cc1` showed an inhibition [1] of 25%, an inhibition [5] of 38% and an IC50 [3] of 0.054 µM.

`CS(=O)(=O)c1ccc(CNc2ccc(-c3c(N)nc(N)nc3COCc3ccccc3)cc2)cc1` was tested, and the IC50 [4] was 0.0003 µM and the IC50 [3] was 0.0071 µM.

`CCCCCc1nc(N)nc(N)c1-c1ccc(NCc2ccc(S(C)(=O)=O)cc2)cc1` gave an IC50 [4] of 0.019 µM and an IC50 [3] of 0.211 µM.

With `CCCNc1nc(N)nc(CC)c1-c1ccc(NCc2ccc(S(C)(=O)=O)cc2)cc1` the IC50 [4] was 0.151 µM and the IC50 [3] was 0.237 µM.

In the case of `CCc1nc(N)nc(NCCO)c1-c1ccc(NCc2ccc(S(C)(=O)=O)cc2)cc1`, the IC50 [4] is reported as 0.354 µM and the IC50 [3] is reported as 3.08 µM.

In the case of `CS(=O)(=O)c1ccc(CNc2ccc(-c3c(N)nc(N)nc3C3CC4CCC3C4)cc2)cc1` (stereo not given), the inhibition [1] is reported as 21%, the inhibition [2] is reported as 3% and the IC50 [3] is reported as 0.137 µM.

`CC(C)CCNCc1nc(N)nc(N)c1-c1ccc(NCc2ccc(S(C)(=O)=O)cc2)cc1` gave an IC50 [4] of 0.061 µM and an IC50 [3] of 1.42 µM.

`CS(=O)(=O)c1ccc(CNc2ccc(-c3c(N)nc(N)nc3CN3Cc4ccccc4C3)cc2)cc1` was tested, and the IC50 [3] was 0.034 µM.

In the case of `CCCCCCc1nc(N)nc(N)c1-c1ccc(NCc2ccc(S(C)(=O)=O)cc2)cc1`, the IC50 [4] is reported as 0.006 µM and the IC50 [3] is reported as 0.062 µM.

Work on `CCc1nc(N)nc(NCc2ccccc2)c1-c1ccc(NCc2ccc(S(C)(=O)=O)cc2)cc1` yielded an IC50 [4] of 0.248 µM and an IC50 [3] of 0.354 µM.

For `CCCCCCCc1nc(N)nc(N)c1-c1ccc(NCc2ccc(S(C)(=O)=O)cc2)cc1`, the IC50 [4] was 0.006 µM and the IC50 [3] was 0.038 µM.

Compound `CC(C)(C)c1nc(N)nc(N)c1-c1ccc(NCc2ccc(S(C)(=O)=O)cc2)cc1` has an inhibition [1] of 87%, an inhibition [2] of 47% and an IC50 [3] of 0.011 µM.

For `CN(Cc1ccccc1)Cc1nc(N)nc(N)c1-c1ccc(NCc2ccc(S(C)(=O)=O)cc2)cc1`, the IC50 [4] was 0.004 µM and the IC50 [3] was 0.069 µM.

For `CCNc1nc(N)nc(CC)c1-c1ccc(NCc2ccc(S(C)(=O)=O)cc2)cc1`, the IC50 [4] was 0.244 µM and the IC50 [3] was > 10 µM.

In the case of `CS(=O)(=O)c1ccc(CNc2ccc(-c3c(N)nc(N)nc3[C@H]3CCCO3)cc2)cc1`, the inhibition [1] is reported as 84% and the IC50 [3] is reported as 0.057 µM.

In the case of `CC(C)=CCOCc1nc(N)nc(N)c1-c1ccc(NCc2ccc(S(C)(=O)=O)cc2)cc1`, the IC50 [4] is reported as 0.0004 µM and the IC50 [3] is reported as 0.0019 µM.

`CS(=O)(=O)c1ccc(CNc2ccc(-c3c(N)nc(N)nc3CN3CCc4ccccc43)cc2)cc1` was tested, and the IC50 [3] was 0.013 µM.

In the case of `CC(C)CCOCc1nc(N)nc(N)c1-c1ccc(NCc2ccc(S(C)(=O)=O)cc2)cc1`, the inhibition [1] is reported as 97%, the inhibition [2] is reported as 88% and the IC50 [4] is reported as 0.0028 µM. For the same compound, the IC50 [3] was 0.0068 µM.

In the case of `CS(=O)(=O)c1ccc(CNc2ccc(-c3c(N)nc(N)nc3C3CC3)cc2)cc1`, the IC50 [3] is reported as 0.019 µM.

With `CN(Cc1nc(N)nc(N)c1-c1ccc(NCc2ccc(S(C)(=O)=O)cc2)cc1)c1ccc(F)cc1` the IC50 [3] was 0.01 µM.

`CCc1nc(N)nc(NCC(C)C)c1-c1ccc(NCc2ccc(S(C)(=O)=O)cc2)cc1` was tested, and the IC50 [4] was 0.199 µM and the IC50 [3] was 2.48 µM.

In the case of `CCc1nc(N)nc(N)c1-c1ccc(NCc2ccc(S(C)(=O)=O)cc2)cc1`, the inhibition [1] is reported as > 99%, the inhibition [2] is reported as > 99% and the IC50 [4] is reported as 0.0097 µM. The IC50 [3] was 0.037 µM.

`CCCCNc1nc(N)nc(CC)c1-c1ccc(NCc2ccc(S(C)(=O)=O)cc2)cc1` showed an IC50 [4] of 0.276 µM and an IC50 [3] of 0.736 µM.

`CN(Cc1nc(N)nc(N)c1-c1ccc(NCc2ccc(S(C)(=O)=O)cc2)cc1)c1ccccc1` gave an inhibition [1] of 84%, an inhibition [2] of 42% and an IC50 [4] of 0.0025 µM. The IC50 [3] was 0.009 µM.

In the case of `CCc1nc(N)nc(N2CCOCC2)c1-c1ccc(NCc2ccc(S(C)(=O)=O)cc2)cc1`, the IC50 [4] is reported as 3.25 µM and the IC50 [3] is reported as > 10 µM.

`CS(=O)(=O)c1ccc(CNc2ccc(-c3c(N)nc(N)nc3COCc3ccco3)cc2)cc1` gave an IC50 [4] of 0.0027 µM and an IC50 [3] of 0.0096 µM.

Work on `CC(C)Cc1nc(N)nc(N)c1-c1ccc(NCc2ccc(S(C)(=O)=O)cc2)cc1` yielded an IC50 [4] of 0.01 µM and an IC50 [3] of 0.04 µM.

`Cc1cc(C)cc(CNC(=O)CCc2nc(N)nc(N)c2-c2ccc(NCc3ccc(S(C)(=O)=O)cc3)cc2)c1` gave an inhibition [1] of 93%, an inhibition [2] of 82% and an IC50 [4] of 0.0004 µM. The IC50 [3] was 0.003 µM.

Compound `CCOC(=O)CCc1nc(N)nc(N)c1-c1ccc(NCc2ccc(S(C)(=O)=O)cc2)cc1` has an IC50 [3] of 0.082 µM.

With `CS(=O)(=O)c1ccc(CNc2ccc(-c3c(N)nc(N)nc3CNCc3ccccc3)cc2)cc1` the IC50 [4] was 0.096 µM and the IC50 [3] was 0.049 µM.

Work on `CS(=O)(=O)c1ccc(CNc2ccc(-c3c(N)nc(N)nc3C3COc4ccccc4O3)cc2)cc1` (stereo not given) yielded an IC50 [3] of 0.18 µM.

For `CS(=O)(=O)c1ccc(CNc2ccc(-c3c(N)nc(N)nc3C3CCC3)cc2)cc1`, the IC50 [3] was 0.014 µM.

For `CS(=O)(=O)c1ccc(CNc2ccc(-c3c(N)nc(N)nc3COCc3cccnc3)cc2)cc1`, the IC50 [4] was 0.038 µM and the IC50 [3] was 0.187 µM.

With `CCc1nc(N)nc(NC2CC2)c1-c1ccc(NCc2ccc(S(C)(=O)=O)cc2)cc1` the IC50 [4] was 0.601 µM and the IC50 [3] was > 10 µM.

In the case of `CCCCc1nc(N)nc(N)c1-c1ccc(NCc2ccc(S(C)(=O)=O)cc2)cc1`, the IC50 [4] is reported as 0.011 µM and the IC50 [3] is reported as 0.032 µM.

With `CS(=O)(=O)c1ccc(CNc2ccc(-c3c(N)nc(N)nc3[C@H]3CC4C=CC3C4)cc2)cc1` (stereo not given in full) the inhibition [1] was 38%, the inhibition [5] was 55% and the IC50 [3] was 0.066 µM.

With `CS(=O)(=O)c1ccc(CNc2ccc(-c3c(N)nc(N)nc3CNc3ccccc3)cc2)cc1` the IC50 [4] was 0.0055 µM and the IC50 [3] was 0.0091 µM.

`CCc1nc(N)nc(N(C)C)c1-c1ccc(NCc2ccc(S(C)(=O)=O)cc2)cc1` gave an IC50 [4] of 0.192 µM and an IC50 [3] of 0.772 µM.

In the case of `CS(=O)(=O)c1ccc(CNc2ccc(-c3c(N)nc(N)nc3CNC3CC3)cc2)cc1`, the IC50 [4] is reported as 0.065 µM and the IC50 [3] is reported as 0.945 µM.

Compound `CS(=O)(=O)c1ccc(CNc2ccc(-c3c(N)nc(N)nc3[C@@H]3CC4C=CC3C4)cc2)cc1` (stereo not given in full) has an inhibition [1] of 45% and an IC50 [3] of 0.283 µM.

`CCCCCCCCc1nc(N)nc(N)c1-c1ccc(NCc2ccc(S(C)(=O)=O)cc2)cc1` gave an IC50 [4] of 0.0052 µM and an IC50 [3] of 0.057 µM.
